# System: rats
# Assay: Cannula placement verification: dipsogenic response to icv angiotensin II
# Type: in vivo, rat
# Conditions: 100 ng i.c.v., 5 minute period post-AII, average
# Method: An appropriate cannula placement is indicated by an intense dipsogenic response to 100 ng i.c.v. angiotensin II (AII). To induce a dipsogenic effect, access is required to the AII receptors located on circumventricular organs around the third ventricle. The time spent drinking for a 5 minute period post-AII is recorded. This tends to be an all-or-nothing effect, but rats spend on average 150 s drinking. […] This may be verified by injection of cresyl violet and sectioning of the brain.
substance,measurement,value
"angiotensin II (DRVYIHPF; Angiotensin-2; UniProt P01019 25-32, looked up)",time spent drinking,~150 s
